Where two headings read alike, the source gives them in different places.

For series [1], the target named is T1, 5-hLOX (Homo sapiens, UniProt P09917).
T1 construct: purchased Cayman Chemicals Inc. (Ann Arbor, MI, USA)
T1 sequence (P09917 1-674): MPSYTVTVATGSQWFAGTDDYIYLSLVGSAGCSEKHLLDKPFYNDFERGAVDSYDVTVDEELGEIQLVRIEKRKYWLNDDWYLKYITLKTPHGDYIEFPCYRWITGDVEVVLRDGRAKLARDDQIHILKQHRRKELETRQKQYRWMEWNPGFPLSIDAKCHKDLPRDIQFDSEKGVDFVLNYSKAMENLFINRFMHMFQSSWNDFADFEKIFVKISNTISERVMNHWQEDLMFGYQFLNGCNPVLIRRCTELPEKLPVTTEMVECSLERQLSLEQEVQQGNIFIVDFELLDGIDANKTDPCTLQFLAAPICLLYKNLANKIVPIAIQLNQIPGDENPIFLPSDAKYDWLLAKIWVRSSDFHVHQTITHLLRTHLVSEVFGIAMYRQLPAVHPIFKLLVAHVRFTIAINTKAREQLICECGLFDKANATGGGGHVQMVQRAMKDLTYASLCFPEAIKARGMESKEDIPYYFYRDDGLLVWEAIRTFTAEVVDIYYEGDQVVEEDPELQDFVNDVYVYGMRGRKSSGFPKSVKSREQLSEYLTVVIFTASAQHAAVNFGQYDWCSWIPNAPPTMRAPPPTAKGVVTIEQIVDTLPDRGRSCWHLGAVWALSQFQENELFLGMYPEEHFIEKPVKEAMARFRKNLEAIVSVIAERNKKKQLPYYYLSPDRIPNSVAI
The series can be described thus: In vitro 5-hLOX enzyme assay (H2DCFDA fluorescence). Type of series: biochemical. Particulars: for Type of inhibition: 5-hLOX; for inhibition at 10 µM: Flavanones at 10 µM. The procedure:
The commercially available enzyme 5-hLOX from Cayman Chemicals Inc. (Ann Arbor, MI, USA), was diluted (1:500) in the assay buffer. This contained 4-(2-hydroxyethyl)-1-piperazineethane sulfonic acid (HEPES) 50 mM, ethylenediamine tetraacetic acid (EDTA) 2 mM, adenosine triphosphate (ATP) 10 μM, and CaCl2 10 μM at pH 7.5) admixed with 10 μM of H2DCFDA. The reaction mixture was incubated for 15 min in the assay plate. Later, 280 μL of buffer and 10 μM of inhibitors were added per well and incubated for 30 min at 37°C. Finally, the reaction was started by adding a suitable concentration of arachidonic acid (0.5 μM) and the fluorescence was read in a multimode detector Synergy™ HT Multi-Mode Microplate Reader (Biotek, Bad Friedrichshall, Germany) […] after incubation at room temperature for 1 h. The IC50 values were obtained for analysis of oxidation of H2DCFDA dye to the highly fluorescent 2’,7’-dichloro-fluorescein (DCF) using the non-linear curve-fitting program. […] All data were collected in duplicate and the assays were performed on different days to ensure reproducibility.

Series [2] deals with T1, 5-hLOX. The series is described as above. Type of series: biochemical. The conditions noted are these: kinetic assays, inhibitor 0–1 μM, substrate 0.2–5 μM.
Series [3] concerns B16-F10 mouse metastatic melanoma cells. As to the kind of experiment: In vitro cytotoxic activity, CyQuant cell viability, 72 h. Type of series: cell-based. The conditions noted are these: for CC50: Mus musculus, B16-F10, 72 h, read-out: LC50 ± SD. The procedure:
Cell viability was measured using a CyQuant® Direct Cell Proliferation Assay Kit (Life Technologies, Grand Island, NY, USA) following the manufacturer’s instruction. Briefly, 5,000 cells per well were seeded onto a flat-bottom 96-well plate in 200 μL final volume. Six hours after seeding, the culture medium was replaced by the medium containing the tested compounds at 0.01 to 100 µM concentrations in DMSO (0.1% final concentration) during 72 h. Untreated cells (medium containing only 0.1% DMSO) were used as controls. At the end of the incubation, 100 μL of culture medium was removed from each well and replaced by detection reagent solution provided by the kit (which is a 1:5 mixture of the reagent CyQUANT®, direct nucleic acid stain and the reagent labeled as CyQUANT® direct background suppressor I). […] At least four independent experiments were performed for each concentration.

Test in series [4]: as above
Type of series: cell-based. The conditions noted are these: mouse. The procedure:
(§1) The used cell lines include MDA-MB-231 human breast adenocarcinoma cells, B16-F10 mouse metastatic melanoma cells and MEF primary mouse embryonic fibroblast. Cells were maintained in a DMEM high glucose medium (Mediatech, Manassas, VA, USA) supplemented with 10% (MDA-MB-231 and B16-F10) or 15% (MEF) heat-inactivated fetal bovine serum (HyClone Laboratories, South Logan, USA), 100 IU ml^-1 penicillin and 100 μg ml^-1 streptomycin while maintained at 37°C in a 5% CO2 humidified atmosphere. Cell viability was measured using a CyQuant® Direct Cell Proliferation Assay Kit (Life Technologies, Grand Island, NY, USA) following the manufacturer’s instruction. Briefly, 5,000 cells per well were seeded onto a flat-bottom 96-well plate in 200 μL final volume. Six hours after seeding, the culture medium was replaced by the medium containing the tested compounds at 0.01 to 100 µM concentrations in DMSO (0.1% final concentration) during 72 h. Untreated cells (medium containing only 0.1% DMSO) were used as controls. At the end of the incubation, 100 μL of culture medium was removed from each well and replaced by detection reagent solution provided by the kit (which is a 1:5 mixture of the reagent CyQUANT®, direct nucleic acid stain and the reagent labeled as CyQUANT® direct background suppressor I). Cells were incubated for 1 h and fluorescence emission was measured at 535 nm with excitation at 480 nm in a microplate reader (Infinite 200 PRO, Tecan, Grödig, Austria). At least four independent experiments were performed for each concentration. The results from each experiment were transformed into percentage of controls and the LC50 values were graphically obtained from the dose-response curves. The LC50 value was obtained adjusting the dose-response curve to sigmoidal curves (variable slope) using the GraphPad Prisma 6.0 software ([GraphPad-Software, 2015]).

Series [5] relates to MDA-MB-231 human breast adenocarcinoma cells. Described as above. Type of series: cell-based. Particulars: for CC50: Homo sapiens, MDA-MB-231, 72 h, read-out: LC50 ± SD. The procedure:
as §1

In series [6] the test system is MEF primary mouse embryonic fibroblast. The series is described as above. The conditions noted are these: MEF (non-cancerous cells); 72 h. It is filed as cell-based. The procedure:
as §1

For `COc1cc(O)c2c(c1)O[C@H](c1ccc(O)c(O)c1)CC2=O` [Compound 2, (-)-(2S)-5,3’,4’-trihydroxy-7-methoxyflavanone], at 5-hLOX [1], the Type of inhibition result is given as “competitive” and the inhibition – broadly, the percentage by which the read-out fell short of the control – at 10 µM worked out at 93 ± 0.791%. Further, the IC50 (in general, the concentration that inhibits the measured activity by half) at 5-hLOX [1] (read-out: IC50 (5-hLOX)) turned out to be 0.1 µM. Also, the affinity on 5-hLOX [2] corresponds to a Ki of 0.05 µM. Also, in series [3] (B16-F10), the “fold less cytotoxic activity against B16-F10 than etoposide” value stood at 4.6 fold and the “fold less cytotoxic activity against B16-F10 than taxol” value is given as 17 fold. Besides, the “selectivity towards B16-F10 as compared to non-cancerous cells (MEF)” value in series [3] (LC50 MEF versus B16-F10) came to 4 fold. Moreover, the CC50 in series [3] came to 8.07 ± 1.61 µM. In addition, the CC50 at 72 h in series [4] amounted to 31 ± 3.69 µM. Also, the CC50 in series [5] was determined as 48.7 ± 9.32 µM.

On to `COc1cc(O)c2c(c1)O[C@H](c1ccc(O)cc1)CC2=O` [Compound 1, (-)-(2S)-5,4’-dihydroxy-7-methoxyflavanone], for which, on 5-hLOX [1], the IC50 stood at 11.3 µM; the inhibitory constant (Ki) (usually the dissociation constant of the complex between target and ligand, obtained from inhibition or displacement) is 4.71 µM; the Type of inhibition result is on record as “non-competitive”; the inhibition at 10 µM turned out to be 61 ± 1.34%. Also, in series [3] (B16-F10, 72 h), the “LC50 ± SD” value is recorded as “no significant cytotoxic activity”. Also, the CC50 in series [3] came to 72 ± 7.16 µM. The CC50 at 72 h in series [4] (MEF (non-cancerous cells), 72 h, read-out: LC50 ± SD) was determined as 146 ± 23.4 µM. The “LC50 ± SD” value in series [6] is reported as “no significant cytotoxic activity”. The CC50 in series [5] is about 1100 µM. Besides, the “LC50 ± SD” value in series [5] (MDA-MB-231, 72 h) is given as “no significant cytotoxic activity”.

(Values after paper PMC7399337, “Biological Properties and Absolute Configuration of Flavanones From Calceolaria thyrsiflora Graham” (Frontiers in Pharmacology, 2020).)
